Laboratory results published in ChEMBL document CHEMBL1944578, “Synthesis and anticonvulsant activity of novel 2,6-diketopiperazine derivatives. Part 2: Perhydropyrido[1,2-a]pyrazines” (Eur J Med Chem, 2012).
The source made the active and inactive calls. No cut-off for these calls is given here.

What was measured:
Rattus norvegicus [1] = experiment: Neurotoxicity in Sprague-Dawley rat assessed as neurological impairment at 30 mg/kg, po measured after 2 hrs; assay type: toxicity, organism-based; design: dose 30 mg/kg, route oral; conditions: in vivo
Rattus norvegicus [2] = experiment: Toxicity in Sprague-Dawley rat assessed as body weight change in unprotected animals at 900 mg/kg, ip measured after 0.5 hrs; assay type: organism-based; design: dose 900 mg/kg, route intraperitoneal; conditions: in vivo
Mus musculus [3] = experiment: Anticonvulsant activity in Carworth farms No.1 albino mouse assessed as protection against maximum electroshock at 100 mg/kg, ip measured after 0.5 hrs; assay type: functional, organism-based; design: dose 100 mg/kg
Mus musculus [4] = experiment: Anticonvulsant activity in Carworth farms No.1 albino mouse assessed as protection against subcutaneous metrazole-induced seizures at 30 mg/kg, ip measured after 4 hrs; assay type: functional, organism-based; design: dose 30 mg/kg
Rattus norvegicus [5] = experiment: Anticonvulsant activity in Sprague-Dawley rat assessed as protection against maximum electroshock at 30 mg/kg, po measured after 0.25 hrs; assay type: functional, organism-based; design: dose 30 mg/kg
Mus musculus [6] = experiment: Anticonvulsant activity in Carworth farms No.1 albino mouse assessed as protection against maximum electroshock at 30 mg/kg, ip measured after 0.5 hrs; assay type: functional, organism-based; design: dose 30 mg/kg
Rattus norvegicus [7] = experiment: Toxicity in Sprague-Dawley rat assessed as body weight change in protected animals at 900 mg/kg, ip measured after 0.5 hrs; assay type: organism-based; design: dose 900 mg/kg, route intraperitoneal; conditions: in vivo
Mus musculus [8] = experiment: Neurotoxicity in Carworth farms No.1 albino mouse assessed as neurological impairment at 300 mg/kg, ip measured after 4 hrs; assay type: toxicity, organism-based; design: dose 300 mg/kg, route intraperitoneal; conditions: in vivo
Mus musculus [9] = experiment: Anticonvulsant activity in Carworth farms No.1 albino mouse assessed as protection against maximum electroshock at 30 mg/kg, ip measured after 4 hrs; assay type: functional, organism-based; design: dose 30 mg/kg
Mus musculus [10] = experiment: Anticonvulsant activity in Carworth farms No.1 albino mouse assessed as protection against subcutaneous metrazole-induced seizures at 300 mg/kg, ip measured after 0.5 hrs; assay type: functional, organism-based; design: dose 300 mg/kg
Rattus norvegicus [11] = experiment: Anticonvulsant activity in Sprague-Dawley rat assessed as protection against maximum electroshock at 30 mg/kg, po measured after 2 hrs; assay type: functional, organism-based; design: dose 30 mg/kg
Mus musculus [12] = experiment: Anticonvulsant activity in Carworth farms No.1 albino mouse assessed as protection against subcutaneous metrazole-induced seizures at 300 mg/kg, ip measured after 4 hrs; assay type: functional, organism-based; design: dose 300 mg/kg
Mus musculus [13] = experiment: Anticonvulsant activity in Carworth farms No.1 albino mouse assessed as protection against subcutaneous metrazole-induced seizures at 100 mg/kg, ip measured after 0.5 hrs; assay type: functional, organism-based; design: dose 100 mg/kg
Rattus norvegicus [14] = experiment: Anticonvulsant activity in Sprague-Dawley rat assessed as protection against maximum electroshock at 30 mg/kg, po measured after 4 hrs; assay type: functional, organism-based; design: dose 30 mg/kg
Mus musculus [15] = experiment: Anticonvulsant activity in Carworth farms No.1 albino mouse assessed as protection against maximum electroshock at 300 mg/kg, ip measured after 0.5 hrs; assay type: functional, organism-based; design: dose 300 mg/kg
Rattus norvegicus [16] = experiment: Neurotoxicity in Sprague-Dawley rat assessed as neurological impairment at 30 mg/kg, po measured after 4 hrs; assay type: toxicity, organism-based; design: dose 30 mg/kg, route oral; conditions: in vivo
Rattus norvegicus [17] = experiment: Toxicity in Sprague-Dawley rat assessed as mortality at 900 mg/kg, ip measured after 0.5 hrs; assay type: organism-based; design: dose 900 mg/kg, route intraperitoneal; conditions: in vivo
Rattus norvegicus [18] = experiment: Anticonvulsant activity in Sprague-Dawley rat assessed as protection against maximum electroshock at 30 mg/kg, po measured after 0.5 hrs; assay type: functional, organism-based; design: dose 30 mg/kg
Mus musculus [19] = experiment: Neurotoxicity in Carworth farms No.1 albino mouse assessed as neurological impairment at 100 mg/kg, ip measured after 0.25 hrs; assay type: toxicity, organism-based; design: dose 100 mg/kg, route intraperitoneal; conditions: in vivo
Mus musculus [20] = experiment: Neurotoxicity in Carworth farms No.1 albino mouse assessed as neurological impairment at 30 mg/kg, ip measured after 0.5 hrs; assay type: toxicity, organism-based; design: dose 30 mg/kg, route intraperitoneal; conditions: in vivo
Mus musculus [21] = experiment: Anticonvulsant activity in Carworth farms No.1 albino mouse assessed as protection against subcutaneous metrazole-induced seizures at 100 mg/kg, ip measured after 4 hrs; assay type: functional, organism-based; design: dose 100 mg/kg
Mus musculus [22] = experiment: Anticonvulsant activity in Carworth farms No.1 albino mouse assessed as protection against 6 Hz electric current-induced seizure at 100 mg/kg, ip measured after 0.25 hrs; assay type: functional, organism-based; design: dose 100 mg/kg
Mus musculus [23] = experiment: Anticonvulsant activity in Carworth farms No.1 albino mouse assessed as protection against subcutaneous metrazole-induced seizures at 30 mg/kg, ip measured after 0.5 hrs; assay type: functional, organism-based; design: dose 30 mg/kg
Mus musculus [24] = experiment: Anticonvulsant activity in Carworth farms No.1 albino mouse assessed as protection against 6 Hz electric current-induced seizure at 100 mg/kg, ip measured after 1 hrs; assay type: functional, organism-based; design: dose 100 mg/kg
Rattus norvegicus [25] = experiment: Neurotoxicity in Sprague-Dawley rat assessed as sedation at 900 mg/kg, ip measured after 0.5 hrs; assay type: toxicity, organism-based; design: dose 900 mg/kg, route intraperitoneal; conditions: in vivo
Rattus norvegicus [26] = experiment: Neurotoxicity in Sprague-Dawley rat assessed as neurological impairment at 30 mg/kg, po measured after 1 hr; assay type: toxicity, organism-based; design: dose 30 mg/kg, route oral; conditions: in vivo
Mus musculus [27] = experiment: Neurotoxicity in Carworth farms No.1 albino mouse assessed as neurological impairment at 300 mg/kg, ip measured after 0.5 hrs; assay type: toxicity, organism-based; design: dose 300 mg/kg, route intraperitoneal; conditions: in vivo
Rattus norvegicus [28] = experiment: Anticonvulsant activity in Sprague-Dawley rat assessed as protection against maximum electroshock at 30 mg/kg, po measured after 1 hr; assay type: functional, organism-based; design: dose 30 mg/kg
Rattus norvegicus [29] = experiment: Neurotoxicity in Sprague-Dawley rat assessed as neurological impairment at 30 mg/kg, po measured after 0.25 hrs; assay type: toxicity, organism-based; design: dose 30 mg/kg, route oral; conditions: in vivo
Mus musculus [30] = species: Mus musculus; experiment: Anticonvulsant activity in electric shock-induced Carworth farms No.1 albino mouse assessed as time of peak effect; assay type: functional
Mus musculus [31] = experiment: Neurotoxicity in Carworth farms No.1 albino mouse assessed as neurological impairment at 100 mg/kg, ip measured after 1 hr; assay type: toxicity, organism-based; design: dose 100 mg/kg, route intraperitoneal; conditions: in vivo
Mus musculus [32] = experiment: Anticonvulsant activity in Carworth farms No.1 albino mouse assessed as protection against maximum electroshock at 300 mg/kg, ip measured after 4 hrs; assay type: functional, organism-based; design: dose 300 mg/kg
Mus musculus [33] = experiment: Neurotoxicity in Carworth farms No.1 albino mouse assessed as neurological impairment at 100 mg/kg, ip measured after 0.5 hrs; assay type: toxicity, organism-based; design: dose 100 mg/kg, route intraperitoneal; conditions: in vivo
Mus musculus [34] = experiment: Neurotoxicity in Carworth farms No.1 albino mouse assessed as neurological impairment at 100 mg/kg, ip measured after 2 hr; assay type: toxicity, organism-based; design: dose 100 mg/kg, route intraperitoneal; conditions: in vivo
Rattus norvegicus [35] = experiment: Anticonvulsant activity in Sprague-Dawley rat assessed as protection against pilocarpine-induced status at 900 mg/kg, ip measured after 0.5 hrs; assay type: functional, organism-based; design: dose 900 mg/kg
Rattus norvegicus [36] = experiment: Neurotoxicity in Sprague-Dawley rat assessed as neurological impairment at 30 mg/kg, po measured after 0.5 hrs; assay type: toxicity, organism-based; design: dose 30 mg/kg, route oral; conditions: in vivo
Mus musculus [37] = experiment: Anticonvulsant activity in Carworth farms No.1 albino mouse assessed as protection against 6 Hz electric current-induced seizure at 100 mg/kg, ip measured after 4 hrs; assay type: functional, organism-based; design: dose 100 mg/kg
Mus musculus [38] = experiment: Anticonvulsant activity in Carworth farms No.1 albino mouse assessed as protection against 6 Hz electric current-induced seizure at 100 mg/kg, ip measured after 0.5 hrs; assay type: functional, organism-based; design: dose 100 mg/kg
Mus musculus [39] = experiment: Neurotoxicity in Carworth farms No.1 albino mouse assessed as neurological impairment at 100 mg/kg, ip measured after 4 hrs; assay type: toxicity, organism-based; design: dose 100 mg/kg, route intraperitoneal; conditions: in vivo
Mus musculus [40] = experiment: Neurotoxicity in Carworth farms No.1 albino mouse assessed as neurological impairment at 30 mg/kg, ip measured after 4 hrs; assay type: toxicity, organism-based; design: dose 30 mg/kg, route intraperitoneal; conditions: in vivo
Mus musculus [41] = experiment: Anticonvulsant activity in Carworth farms No.1 albino mouse assessed as protection against maximum electroshock at 100 mg/kg, ip measured after 4 hrs; assay type: functional, organism-based; design: dose 100 mg/kg
Mus musculus [42] = experiment: Anticonvulsant activity in ip dosed Carworth farms No.1 albino mouse assessed as protection against 6 Hz electric current-induced seizure measured after 0.25 hrs; assay type: functional
Mus musculus [43] = experiment: Anticonvulsant activity in Carworth farms No.1 albino mouse assessed as protection against 6 Hz electric current-induced seizure at 100 mg/kg, ip measured after 2 hrs; assay type: functional, organism-based; design: dose 100 mg/kg

O=C1NC(=O)[C@@H](c2ccccc2)N2CCCC[C@H]12
Activity (Rattus norvegicus [1]): Non-toxic | Activity (Rattus norvegicus [2]): -20 g | Activity (Mus musculus [3]): inactive | Activity (Mus musculus [4]): inactive | Activity (Rattus norvegicus [5]): inactive | Activity (Mus musculus [6]): inactive | Activity (Rattus norvegicus [7]): -17.5 g | Activity (Mus musculus [8]): Non-toxic | Activity (Mus musculus [9]): inactive | Activity (Mus musculus [10]): inactive | Activity (Rattus norvegicus [11]): inactive | Activity (Mus musculus [12]): inactive | Activity (Mus musculus [13]): inactive | Activity (Rattus norvegicus [14]): Active | Activity (Mus musculus [15]): inactive | Activity (Rattus norvegicus [16]): Non-toxic | Activity (Rattus norvegicus [17]): Toxic | Activity (Rattus norvegicus [18]): inactive | Activity (Mus musculus [19]): Non-toxic | Activity (Mus musculus [20]): Non-toxic | Activity (Mus musculus [21]): inactive | Activity (Mus musculus [22]): Active | Activity (Mus musculus [23]): inactive | Activity (Mus musculus [24]): Active | Activity (Rattus norvegicus [25]): Toxic | Activity (Rattus norvegicus [26]): Non-toxic | Activity (Mus musculus [27]): Non-toxic | Activity (Rattus norvegicus [28]): inactive | Activity (Rattus norvegicus [29]): Non-toxic | Time (Mus musculus [30]): 0.25 h | Activity (Mus musculus [31]): Non-toxic | Activity (Mus musculus [32]): inactive | Activity (Mus musculus [33]): Non-toxic | Activity (Mus musculus [34]): Non-toxic | Activity (Rattus norvegicus [35]): Active | Activity (Rattus norvegicus [36]): Non-toxic | Activity (Mus musculus [37]): inactive | Activity (Mus musculus [38]): Active | Activity (Mus musculus [39]): Non-toxic | Activity (Mus musculus [40]): Non-toxic | Activity (Mus musculus [41]): inactive | ED50 (Mus musculus [42]): 38.2 mg/kg | Activity (Mus musculus [43]): Active
